{
  "source": "patent US20250000829A1",
  "about": "“PHENYLBUTYRATE COMPOSITIONS FOR TREATING DEVELOPMENTAL AND EPILEPTIC ENCEPHALOPATHY (“DEE”), AND STXBP1 DISORDERS” (priority 2023, published 2025)",
  "key": {"[1]": {"details": "cited from earlier work"}, "[2]": {"system": "children with STXBP1-E and SLC6A1-NDD", "assay": "Open-label pilot study: sleep assessed with the Child's Sleep Habits Questionnaire (CSHQ)", "type": "in vivo, human", "details": "assessed at 10 weeks of drug exposure", "procedure": "(§1) After institutional review board approval, 20 participants were enrolled in a single treatment group, multiple-dose, open-label, pilot study to evaluate the safety, tolerability, pharmacokinetics (PK) and pharmacodynamics (PD) of glycerol phenylbutyrate in children with STXBP1-E and SLC6A1-NDD.\nVisit 5 was a pre-treatment baseline visit conducted at least 28 days after visit 1 and the day before treatment initiation. This visit was conducted in person while the patient was admitted to hospital. During this visit, the investigator reviewed the participant's seizure diary and medical history. […]\n(§2) Visit 14 was a treatment evaluation visit and was conducted in person at least 40 days after the first day of medication administration. […] The participant was evaluated by a developmental pediatrician, neuropsychologist, or psychologist, in the same fashion as during visit 5.\nResponse to the medication was measured qualitatively and quantitatively using the following measures. […] Additional measures comparing visit 5 and visit 14 included quality of life assessment, as quantified by the change in PEDSQL epilepsy module score, and by the trajectory and overall change in the PELHS QOL-2 score; qualitative analysis of the participant's development and behavior; change in developmental assessment scores; ataxia as measured by changes in SARA scale score; and sleep as measured by CSHQ score. […]"}, "[3]": {"details": "non-human primates; via the monocarboxylate transporter 1 mechanism; cited from earlier work"}, "[4]": {"details": "mice; via the monocarboxylate transporter 1 mechanism; cited from earlier work"}, "[5]": {"details": "based on Lexicomp; cited from earlier work"}, "[6]": {"assay": "Blood/plasma and CSF levels of phenylbutyrate after glycerol phenylbutyrate dosing", "type": "in vivo, human", "details": "doses of 12 g/m^2/day, extrapolated from 3 g/m^2/day", "procedure": "Dosing was sufficient to lead to therapeutic concentrations in the range of 0.25 mM to 1 mM in serum and CSF, based on the following observations. […] CSF levels are approximately ½ to ¼ of serum levels, based on data from non-human primates, thus CSF levels of 0.25 to 0.5 mM were assumed.\nThe secondary endpoints were measuring plasma concentration of phenylbutyrate and active metabolites. Plasma levels of phenylbutyrate peaked at 2 hours after an oral dose. Thus investigators aimed to obtain levels within 90-150 minutes after the oral dose."}, "[7]": {"system": "children with STXBP1-E and SLC6A1-NDD", "assay": "Open-label pilot study of glycerol phenylbutyrate: seizure response (seizure diary)", "type": "in vivo, human", "details": "of 20 participants", "description": "as §1\nParticipants in the study were patients aged 2 months to 17 years with STXBP1-E and seizures or with SLC6A1-NDD. People with SLC6A1 typically experience seizures later in life (typically middle of 1st decade) and so seizures were not an entry criterion for participants with SLC6A1. During enrollment preference was given to patients between 2 months and 3 years old (target of 5 patients) and patients between 4 and 10 years old (target 5 patients). This is because younger patients up to 3 years old may be more sensitive to possible pharmacodynamics and efficacy endpoints and, to a lesser extent, the same may be true for patients 4 to 10 years, as compared to older patients. The study enrolled 11 patients, including 4 children between 2 months and 2 years.\nA daily dose of 11.2 mL/m^2, equivalent to 12.4 g/m^2, was given, enterally (by mouth or, if necessary, by nasogastric or gastrostomy tube). The daily dose was divided into three equally divided doses, with each dose given with food.\nFIG. 3 is a schedule of assessments for measuring the effectiveness of glycerol phenylbutyrate to treat patients with STXBP1-E and SLC6A1-NDD. […]\nResponse to the medication was measured qualitatively and quantitatively using the following measures. Quantitative and qualitative measures included the change in the number of and percent change in the seizures per week, as recorded in the seizure diary, comparing weeks 1-4 with weeks 5-10; change and percent change in number of seizures per hour, as recorded by video EEG, comparing visit 5 (day before medication) to visit 6 (first day of medication), and comparing visit 5 to visit 14 (40 days after the first day of medication); and changes in […] in EEG data, comparing visit 5 to visit 6 and visit 5 to visit 14. Additional measures comparing visit 5 and visit 14 included quality of life assessment, as quantified by the change in PEDSQL epilepsy module score, and by the trajectory and overall change in the PELHS QOL-2 score; qualitative analysis of the participant's development and behavior; change in developmental assessment scores; ataxia as measured by changes in SARA scale score; and sleep as measured by CSHQ score. Medication dosing adherence was also assessed, quantified as the percentage of days in which the participant received the full prescribed dose, and considering obstacles to adherence qualitatively as reported by caregivers. […]"}, "[8]": {"system": "children with STXBP1-E and SLC6A1-NDD", "assay": "Open-label pilot study: communication assessed with the ORCA", "type": "in vivo, human", "details": "assessed at 10 weeks of drug exposure", "procedure": "as §1\nDevelopment was assessed using several pre-specified measures (Vineland, ORCA) as well as an assessment by a pediatric development expert (i.e. a physician, neuropsychologist, or psychologist with expertise in administering and interpreting developmental assessments). During the assessment, several additional validated measures may have been used. These may have included (but were not limited to) the Bayley Scales of Infant and Toddler Development, the Childhood Autism Rating Scale, the Child Behavior Checklist, the Behavior Rating Inventory of Executive Function, the Infant Toddler Social Emotional Assessment, the DAYC (Developmental Assessment of Young Children), or other similar validated scales. […]\nas §2\n(§3) Response to the medication was measured qualitatively and quantitatively using the following measures. […]"}, "child with SLC6A1": {"system": "child with SLC6A1", "assay": "Open-label pilot study: EEG before and after treatment", "type": "in vivo, human", "details": "10 second EEG, same child with SLC6A1, six weeks after treatment vs prior to treatment (brief absence seizure)", "procedure": "Investigators noted EEG changes, including standard clinical interpretation of the EEG and video (particularly for abnormal movements).\nVisit 5 was a pre-treatment baseline visit conducted at least 28 days after visit 1 and the day before treatment initiation. This visit was conducted in person while the patient was admitted to hospital. During this visit, the investigator reviewed the participant's seizure diary and medical history. The investigator administered several assessments, including the PEDSQL Epilepsy Module, the PELHS QOL 2, the SARA Scale, the CARS, the CSHQ, and the ORCA. The participant was given a physical exam and had urine and blood samples collected for a series of laboratory tests. Laboratory tests included routine laboratory tests and specialized laboratory tests. Routine laboratory tests that were conducted included a complete blood count (CBC), chemistry panels, liver function tests (LFTs), urinalysis, amylase test, lipase test, anti-seizure medication (ASM) levels test, and electrocardiogram (EKG). […]\nVisit 14 was a treatment evaluation visit and was conducted in person at least 40 days after the first day of medication administration. […] The participant was evaluated by a developmental pediatrician, neuropsychologist, or psychologist, in the same fashion as during visit 5. […]"}, "[9]": {"system": "children with STXBP1-E and SLC6A1-NDD", "assay": "Open-label pilot study: quality of life assessed with the PEDSQL epilepsy module", "type": "in vivo, human", "details": "assessed at 10 weeks of drug exposure", "procedure": "as §1\nQuality of life was assessed using the Pediatric Quality of Life Inventory (PEDSQL) epilepsy module, which is a validated scale about quality of life for children with epilepsy, and the Pediatric Epilepsy Learning Healthcare System Quality of Life survey (PELHS QOL 2), which is a set of two questions that ask how seizures and medication side effects alter usual routines. The PEDSQL is provided at eprovide.mapi-trust.org/instruments/pediatric-quality-of-life-inventory-epilepsy-module.\nVisit 5 was a pre-treatment baseline visit conducted at least 28 days after visit 1 and the day before treatment initiation. This visit was conducted in person while the patient was admitted to hospital. […]\nas §2, §3"}, "[10]": {"details": "daily dose 11.2 mL/m^2 enterally"}},
  "note": "Where “and” joins values, the source holds several entries; their conditions need not be identical. Equal entries are not always repeated. Where two headings read alike, the source gives them in different places.",
  "data": [
    {"compound": "phenylbutyric acid [phenylbutyrate]", "values": [
      {"measurement": "Time of peak plasma levels of phenylbutyrate", "setting": "[1]; after an oral dose", "value": 2, "unit": "h"}
    ]},
    {"compound": "O=C(CCCc1ccccc1)OCC(COC(=O)CCCc1ccccc1)OC(=O)CCCc1ccccc1", "note": "[glycerol phenylbutyrate]", "values": [
      {"measurement": "Participants with improved sleep, as assessed with the CSHQ", "setting": "[2]", "value": "5 of 12"},
      {"measurement": "Crossing of the blood-brain barrier", "setting": "[3]", "value": "crosses the blood-brain barrier"},
      {"measurement": "Crossing of the blood-brain barrier", "setting": "[4]", "value": "crosses the blood-brain barrier"},
      {"measurement": "Side effect frequency: abdominal pain", "setting": "[5]", "value": 7, "unit": "%"},
      {"measurement": "Side effect frequency: decreased appetite", "setting": "[5]", "value": 7, "unit": "%"},
      {"measurement": "Side effect frequency: diarrhea", "setting": "[5]", "value": 16, "unit": "%"},
      {"measurement": "Side effect frequency: dyspepsia", "setting": "[5]", "value": 5, "unit": "%"},
      {"measurement": "Side effect frequency: fatigue", "setting": "[5]", "value": 7, "unit": "%"},
      {"measurement": "Side effect frequency: flatulence", "setting": "[5]", "value": 14, "unit": "%"},
      {"measurement": "Side effect frequency: headache", "setting": "[5]", "value": 14, "unit": "%"},
      {"measurement": "Side effect frequency: nausea", "setting": "[5]", "value": 2, "unit": "%"},
      {"measurement": "Side effect frequency: vomiting", "setting": "[5]", "value": 7, "unit": "%"},
      {"measurement": "Concentration in serum", "setting": "[6]", "value": "~1000", "unit": "µM"},
      {"measurement": "Responders (50% or more reduction in seizures clinically associated with the use of glycerol phenylbutyrate)", "setting": "[7]; daily dose 11.2 mL/m^2 (12.4 g/m^2) enterally in three divided doses", "value": 11, "unit": "participants"},
      {"measurement": "Indeterminant response (improvement, but less than 50% reduction in seizures or not clinically associated with use)", "setting": "[7]; [10]", "value": 3, "unit": "participants"},
      {"measurement": "Non-responders", "setting": "[7]; [10]", "value": 2, "unit": "participants"},
      {"measurement": "Participants that had no seizures", "setting": "[7]; [10]", "value": 4, "unit": "participants"},
      {"measurement": "Participants with improved communication, as assessed with the ORCA", "setting": "[8]", "value": "8 of 11"},
      {"measurement": "Seizure activity in EEG after treatment", "setting": "child with SLC6A1", "value": "did not show seizure activity"},
      {"measurement": "Blood levels of phenylbutyric acid", "setting": "[1]; doses of 3 g/m^2/day of glycerol phenylbutyrate, adults", "value": "38 μg/mL and 0.23 mM"},
      {"measurement": "Participants with improved quality of life, as assessed with the PEDSQL", "setting": "[9]", "value": "4 of 11"}
    ]}
  ]
}
